In experiment [1] the target is T1, 5-Lipoxygenase (Homo sapiens, UniProt P09917).
T1 construct: endogenous in cells; host or cells: whole blood of male human donors (results per 10^6 neutrophils)
T1 sequence (P09917 1-674): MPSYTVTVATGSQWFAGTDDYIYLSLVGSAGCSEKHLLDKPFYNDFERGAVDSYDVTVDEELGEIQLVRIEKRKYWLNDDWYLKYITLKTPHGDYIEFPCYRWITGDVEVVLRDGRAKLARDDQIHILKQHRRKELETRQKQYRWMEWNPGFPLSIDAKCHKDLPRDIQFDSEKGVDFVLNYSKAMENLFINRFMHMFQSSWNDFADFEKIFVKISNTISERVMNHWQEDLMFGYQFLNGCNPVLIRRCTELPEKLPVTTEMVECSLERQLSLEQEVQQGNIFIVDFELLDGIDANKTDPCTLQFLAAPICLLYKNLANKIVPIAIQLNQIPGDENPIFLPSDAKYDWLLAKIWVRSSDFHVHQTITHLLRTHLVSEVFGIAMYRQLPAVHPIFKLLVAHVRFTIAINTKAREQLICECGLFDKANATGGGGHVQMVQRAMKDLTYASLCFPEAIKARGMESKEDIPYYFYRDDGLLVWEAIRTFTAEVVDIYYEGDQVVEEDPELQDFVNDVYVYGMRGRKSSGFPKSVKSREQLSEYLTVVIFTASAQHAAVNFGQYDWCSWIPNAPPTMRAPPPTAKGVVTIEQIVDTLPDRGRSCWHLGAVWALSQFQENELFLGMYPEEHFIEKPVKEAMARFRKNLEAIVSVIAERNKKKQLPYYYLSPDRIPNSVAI
As to the kind of experiment: Inhibition of 5-Lipoxygenase in Human Whole Blood (ionophore A23187-stimulated LTB4). The class given is cell-based. As for the experimental part: 1. Inhibition of 5-Lipoxygenase in Human Whole Blood
Blood is obtained in 50-100 ml quantities from male donors. White blood cell counts and differentials are made. Two ml of blood are placed in a 15 ml polypropylene test tube. Test compounds are solubilized in dimethylsulfoxide and diluted in 1:10 in 10% bovine serum albumin in phosphate buffered saline, pH 7.4 resulting in a final dimethylsulfoxide concentration of 0.1% in the blood. Then, solutions of test compounds are added to the blood in a shaking water bath at 37° C. for 10 minutes prior to the addition of 30 μM calcium ionophore (A23187, Sigma). After ionophore administration, whole blood samples are mixed and incubated for 20 minutes at 37° C. in a shaking water bath. Incubation is terminated by placing samples in an ice bath and immediately adding ethylene glycol-bis-(β-aminoethyl ether)-N, N,N',N'-tetraacetic acid (10 mM). Samples are mixed and centrifuged at 1200×g for 15 minutes at […]. Preparation of samples for evaluation by RIA or ELISA is carded out by the following protocol. Plasma is removed from sample tubes, placed in 15 ml polypropylene test tubes containing 8 ml methanol, and then vortexed to precipitate protein. Samples are stored at -70° C. overnight. The next day, samples are centrifuged at 200×g for 15 minutes at 4° C. to pellet the precipitate. Samples are dried in a Savant SpeedVac Concentrator, Model SVC 200H, reconstituted to original volume with ice cold RIA or ELISA buffer, and stored at -70° C. until assayed. The assay for eicosanoids (LTB4, TxB2, and PGE2) is performed as described by the manufacturer of the [^3 H]-RIA kit or ELISA kit (LTB4 -Amersham, TxB2 and PGE2 - Caymen Chemical).
The total eicosanoid level in 2 ml of blood is calculated and reported as ng/10^6 neutrophils. Significance is determined by a one-way analysis of variance with least significant difference (LSD) comparisons to control (p≤0.05) and IC50 's (μM) are determined by regression analysis (Finney, 1978). Drug effects are expressed as percent change from control values.

Experiment [2] relates to Low Density Lipoprotein. As to the kind of experiment: Inhibition of Copper Ion Mediated Oxidation of Low Density Lipoprotein. The class given is biochemical. The note with it: Cu+2 mediated oxidation of rabbit or monkey LDL, 37° C., 90 minutes, 532 nm. As for the experimental part:
5. Inhibition of Copper Ion Mediated Oxidation of Low Density Lipoprotein
In this in vitro assay, the inhibition of Cu^+2 mediated oxidation of rabbit or monkey LDL by an invention compound is determined spectrophotometricallly. Oxidation of LDL results in the formation of LDL-diene which absorbs light at 532 nm. Inhibition of oxidation of LDL leads to a decrease in absorbance at 532 nm.
Rabbit or monkey LDL is prepared according to the procedures of Havel, Eder and Gragdon, "The Distribution and Chemical Composition of Ultracentrifugally Separated Lipoproteins in Human Serum,: J. Clin. Invest. 34, 1345-1353 (1955) and Parhtasarathy, Wieland and Steriberg, "A Role for Endothelial Cell Lipoxygenase in the Oxidative Modification of Low Density Lipoprotein," Proc. Natl. Acad. Sci. USA 86, 1046-1050 (1989). Test compound solutions are prepared by dissolving the invention compounds in ethanol at concentrations up to 248 μM. The medium used is Dulbecco's phosphate buffered saline containing 0.5 mg/ml bovine serum albumin. For standards, 0 to 10 μl of an aqueous solution of 1,1,3,3-tetraethoxypropane (1 μmol/ml H2 O) in 4.1 ml of medium is used.
Test compound solution ([…]) is added to 4 ml of medium in incubation tubes. To each tube is added 10 μl of LDL solution and 25 μl of aqueous copper sulfate solution (1.32 mg/ml H2 O). The tubes are incubated at 37° C. for 90 minutes and the oxidation reaction quenched by addition of 1 ml of thiobarbituric acid solution (0.67% in 50% acetic acid). The tubes are heated at 90° C. for 1 hour, then chilled in an ice bath and the chromophore extracted into 2 ml of n-butanol. Absorbence is read at 532 nm and the results are reported as nmols of malondialdehyde equivalents.
Significant differences (p<0.05) are determined by the Dunnett T-test or by the Student-Newman-Keuls Test for significant differences between means. The assay is conducted using several concentrations [I] of the inhibitor test compounds. The LDL solution concentrations at different experiments were either 1.5 mg/ml, 2.5 mg/ml or 10.3 mg/ml. The IC50 is determined by non-linear regression, plotting log [I] vs. % inhibition. (Reference: K. Yagi, Biochemical Medicine 15,212-216 (1976)).

In experiment [1] (10 μM), `Cc1oc(-c2ccccc2)nc1CCOc1ccc(C(C)N(O)C(N)=O)cc1` (stereo not shown) [Example 4] registered an inhibition at 10 µM of 60%. Also, the concentration for half-maximal inhibition (IC50) in experiment [2] worked out at 1300 nM.
Take `Cc1oc(-c2ccc(C(F)(F)F)cc2)nc1CCOc1ccc(CN(O)C(N)=O)cc1` [Example 13, 1-Hydroxy-1-[4-[2-[5-methyl-2(4-trifluoromethyl-phenyl)-oxazol-4-yl]-ethoxy]benzyl]-urea]: 1 µM produced 47% inhibition in experiment [1]. Besides, the IC50 in experiment [2] was 820 nM.
As to `NC(=O)N(O)Cc1ccc(OCCc2noc(-c3ccccc3)n2)cc1` [Example 21, 1-hydroxy-1-[4-[2-(5-phenyl-[1,2,4]-oxadiazol-3-yl)-ethoxy]-benzyl]-urea], in experiment [1], at 1 µM the inhibition was 70%.
`Cc1oc(-c2ccccc2)nc1CCOc1ccc(CN(O)C(N)=O)cc1` [Example 1]: the inhibition at 1 µM in experiment [1] came out at 55%. Moreover, the midpoint of inhibition in experiment [2], the IC50, lay at 690 nM.

(Values after patent US5428048A, “Aryl-N-hydroxyureas as inhibitors of 5-lipoxygenase and anto-arteriosclerotic agents” (American Home Products Corporation, priority 1993, dated 1995).)
